From PubChem BioAssay (NCI)
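48-hour exposure; five concentrations; linearly interpolated endpoints. At the TGI there is no net growth.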

Legend:
Assay in all cases: inhibition of tumour cell growth, NCI panel, 48 h
DLD-1 colon = test system: DLD-1 colon
SF-295 CNS = test system: SF-295 CNS
SR leukemia = test system: SR leukemia
OVCAR-4 ovarian = test system: OVCAR-4 ovarian
M19-MEL melanoma = test system: M19-MEL melanoma
HCC-2998 colon = test system: HCC-2998 colon
IGROV1 ovarian = test system: IGROV1 ovarian
M14 melanoma = test system: M14 melanoma
HCT-15 colon = test system: HCT-15 colon
SK-MEL-2 melanoma = test system: SK-MEL-2 melanoma
DMS 114 small cell lung = test system: DMS 114 small cell lung
SF-268 CNS = test system: SF-268 CNS
NCI-H460 lung = test system: NCI-H460 lung
OVCAR-3 ovarian = test system: OVCAR-3 ovarian
A549 NSCLC = test system: A549 NSCLC
SF-539 CNS = test system: SF-539 CNS
A498 renal = test system: A498 renal
NCI-H522 lung = test system: NCI-H522 lung
786-0 renal = test system: 786-0 renal
EKVX NSCLC = test system: EKVX NSCLC
TK-10 renal = test system: TK-10 renal
CCRF-CEM leukemia = test system: CCRF-CEM leukemia
RXF 393 renal = test system: RXF 393 renal
NCI-H226 lung = test system: NCI-H226 lung
CAKI-1 renal = test system: CAKI-1 renal
COLO 205 colon = test system: COLO 205 colon
SK-MEL-5 melanoma = test system: SK-MEL-5 melanoma
ACHN renal = test system: ACHN renal
LXFL 529 NSCLC = test system: LXFL 529 NSCLC
OVCAR-8 ovarian = test system: OVCAR-8 ovarian
SNB-75 CNS = test system: SNB-75 CNS
KM20L2 colon = test system: KM20L2 colon
MALME-3M melanoma = test system: MALME-3M melanoma
UO-31 renal = test system: UO-31 renal
NCI-H23 lung = test system: NCI-H23 lung
UACC-257 melanoma = test system: UACC-257 melanoma
SW-620 colon = test system: SW-620 colon
SNB-19 CNS = test system: SNB-19 CNS
RXF-631 renal = test system: RXF-631 renal
U251 CNS = test system: U251 CNS
UACC-62 melanoma = test system: UACC-62 melanoma
KM12 colon = test system: KM12 colon
SN12C renal = test system: SN12C renal
HCT-116 colon = test system: HCT-116 colon
HL-60(TB) leukemia = test system: HL-60(TB) leukemia
K-562 leukemia = test system: K-562 leukemia
MOLT-4 leukemia = test system: MOLT-4 leukemia
RPMI-8226 leukemia = test system: RPMI-8226 leukemia
HT29 colon = test system: HT29 colon
DMS 273 small cell lung = test system: DMS 273 small cell lung
LOX IMVI melanoma = test system: LOX IMVI melanoma
HOP-62 NSCLC = test system: HOP-62 NSCLC
OVCAR-5 ovarian = test system: OVCAR-5 ovarian
SK-MEL-28 melanoma = test system: SK-MEL-28 melanoma
SK-OV-3 ovarian = test system: SK-OV-3 ovarian
HOP-92 NSCLC = test system: HOP-92 NSCLC
HOP-18 NSCLC = test system: HOP-18 NSCLC
SNB-78 CNS = test system: SNB-78 CNS
XF 498 CNS = test system: XF 498 CNS

Measured: TGI

CS(=O)(=O)NNS(=O)(=O)c1ccc(F)cc1
not listed: OVCAR-5 ovarian | SK-MEL-28 melanoma | SK-OV-3 ovarian | HOP-92 NSCLC | HOP-18 NSCLC | SNB-78 CNS | XF 498 CNS
> 100 µM: all other assays above

CSc1ccc2c(cc1=O)C(NC(=O)c1ccccc1)CCc1cc(O)c(O)c(O)c1-2 (stereo not given)
35.7 µM: M14 melanoma
57.8 µM: HOP-62 NSCLC
45.7 µM: NCI-H226 lung
38.2 µM: HL-60(TB) leukemia
26.2 µM: U251 CNS
35.6 µM: NCI-H522 lung
44.7 µM: SN12C renal
30 µM: LOX IMVI melanoma
36.4 µM: HCT-116 colon
5.91 µM: OVCAR-3 ovarian
40.3 µM: NCI-H460 lung
56.9 µM: A498 renal
32.7 µM: DLD-1 colon
8.42 µM: SNB-75 CNS
62.6 µM: RPMI-8226 leukemia
36.2 µM: HCC-2998 colon
10.6 µM: SF-539 CNS
33.2 µM: OVCAR-4 ovarian
25.7 µM: UACC-62 melanoma
60.8 µM: LXFL 529 NSCLC
73.4 µM: COLO 205 colon
24.7 µM: NCI-H23 lung
37.2 µM: K-562 leukemia
27.1 µM: SNB-19 CNS
88 µM: CAKI-1 renal
65 µM: M19-MEL melanoma
3.62 µM: KM20L2 colon
38.5 µM: HOP-92 NSCLC
35.3 µM: HCT-15 colon
54.2 µM: MOLT-4 leukemia
27.5 µM: KM12 colon
79.7 µM: DMS 114 small cell lung
66.1 µM: IGROV1 ovarian
12.7 µM: SK-MEL-5 melanoma
29.1 µM: SW-620 colon
not listed: SR leukemia | RXF-631 renal | XF 498 CNS
> 100 µM: all other assays above

CNS(=O)(=O)NNS(=O)(=O)c1ccc(F)cc1
not listed: HCC-2998 colon | TK-10 renal | MALME-3M melanoma | SN12C renal | OVCAR-5 ovarian | SK-MEL-28 melanoma | SK-OV-3 ovarian | HOP-92 NSCLC | HOP-18 NSCLC | SNB-78 CNS
> 100 µM: all other assays above

COC(=O)N/N=C(\C)CC(=O)Nc1cccc([N+](=O)[O-])c1
not listed: SR leukemia | OVCAR-4 ovarian | HCT-15 colon | A498 renal | CAKI-1 renal | ACHN renal | SNB-19 CNS | RXF-631 renal | SN12C renal | HOP-18 NSCLC
> 100 µM: all other assays above

Oc1ccc(C2Oc3cc(O)cc4c3C2c2cc(O)cc3c2C(c2cc(O)cc5c2C4C(c2ccc(O)cc2)O5)C(c2ccc(O)cc2)O3)cc1 (stereo not given)
17.3 µM: NCI-H226 lung
22.8 µM: SF-539 CNS | OVCAR-8 ovarian
16.9 µM: SK-MEL-28 melanoma
15.5 µM: SNB-75 CNS
20.7 µM: MALME-3M melanoma
22.9 µM: NCI-H23 lung
24.5 µM: XF 498 CNS
21.3 µM: HOP-92 NSCLC
10.4 µM: OVCAR-4 ovarian
14.1 µM: HL-60(TB) leukemia
24.3 µM: RPMI-8226 leukemia
12.3 µM: SK-MEL-2 melanoma
not listed: SF-295 CNS | IGROV1 ovarian | RXF 393 renal | RXF-631 renal | HT29 colon | SK-OV-3 ovarian | HOP-18 NSCLC | SNB-78 CNS
> 25 µM: all other assays above

CC(=O)OC1=C2CC[C@@H]3C(CC[C@@]4(C)C3CC[C@@H]4OC(C)=O)[C@@]2(C)CC(C#N)C1=O (stereo not given in full)
69.8 µM: DLD-1 colon
90.5 µM: U251 CNS
74 µM: DMS 273 small cell lung
49.4 µM: SK-MEL-5 melanoma
59.4 µM: OVCAR-4 ovarian | SK-MEL-2 melanoma
80.8 µM: XF 498 CNS
48.1 µM: SK-OV-3 ovarian
74.4 µM: NCI-H460 lung
46.9 µM: RPMI-8226 leukemia
37.1 µM: DMS 114 small cell lung
38.9 µM: UACC-62 melanoma
53.1 µM: CCRF-CEM leukemia
61.4 µM: IGROV1 ovarian
90.8 µM: SNB-78 CNS
72.9 µM: SNB-75 CNS
71 µM: ACHN renal
9.59 µM: A498 renal
54.9 µM: HOP-92 NSCLC
88.1 µM: K-562 leukemia
51.3 µM: MOLT-4 leukemia
42.6 µM: HL-60(TB) leukemia
53.3 µM: OVCAR-3 ovarian
43.5 µM: COLO 205 colon
91.3 µM: LXFL 529 NSCLC
not listed: SR leukemia | M19-MEL melanoma | NCI-H522 lung | CAKI-1 renal | RXF-631 renal | HOP-18 NSCLC
> 100 µM: all other assays above

Nc1nc(SCCNC(=O)CCc2ccc(O)c(I)c2)nc2c1ncn2C1OC(CO)C(O)C1O (stereo not given)
not listed: 786-0 renal | CAKI-1 renal | UO-31 renal | RXF-631 renal | RPMI-8226 leukemia | LOX IMVI melanoma | HOP-18 NSCLC
> 100 µM: all other assays above

O=Cc1ccccc1CCn1c(=O)c2cc3c(=O)n(CCc4ccccc4C=O)c(=O)c3cc2c1=O
not listed: SR leukemia | M19-MEL melanoma | HCC-2998 colon | M14 melanoma | 786-0 renal | EKVX NSCLC | CAKI-1 renal | COLO 205 colon | KM20L2 colon | RXF-631 renal | RPMI-8226 leukemia | HOP-62 NSCLC | OVCAR-5 ovarian | HOP-92 NSCLC | HOP-18 NSCLC | XF 498 CNS
> 100 µM: all other assays above
